# Experimental data: patent US10597369B2, “Monosulfonic phenyltetrazole compounds with applications” (HANGZHOU JENNIFER BIOTECH CO., LTD., priority 2015, dated 2020)
# Counter-ions that a name gives are not always drawn.
# How the values were obtained:
# [1] = Reagent stability assays (stored tetrazolium detection reagent tested with NADH, response at 450 nm); type: physicochemical; conditions: for lost activity: detection reagent after storage at 4° C. for a month, tested using 100 μM NADH in 50 mM Tris-Cl (pH 8); for changes in activity on storage: storage at −20° C. for up to a year, tested monthly in NADH titration
# Protocol: The tetrazolium detection reagent (WST-8 or EZMTT) was stored at 4 and −20° C., respectively. Once a month, the stored tetrazolium detection reagent was tested using 100 μM NADH in 50 mM Tris-Cl (pH 8) and the response was measured at 450 nm.
# For the stability test, the WST-8, EZMTT detection reagents were stored at 4° C. and −20° C. up to a year. Both reagents were tested in NADH titration every month for their activities.
Compound,lost activity [1] [%],changes in activity on storage [1],melting point [°C]
"COc1cc([N+](=O)[O-])ccc1-[n+]1nc(-c2ccccc2S(=O)(=O)O)nn1-c1ccc([N+](=O)[O-])cc1 [EZMTT, 2-(4-nitrophenyl)-3-(2-methoxy-4-nitrophenyl)-5 (2-sulfonic phenyl)-2H-tetrazolium monosodium salt]",25,essentially no changes in activity,
"COc1cc([N+](=O)[O-])ccc1-[n+]1nc(-c2ccc(S(=O)(=O)[O-])cc2S(=O)(=O)[O-])nn1-c1ccc([N+](=O)[O-])cc1.[Na+] [WST-8, 2-(3-(2-methoxy-4-nitrophenyl)-2-(4-nitrophenyl)-2H-tetrazolium)benzene disulfonate sodium salt, reference compound]",60,essentially no changes in activity,
"COc1cc([N+](=O)[O-])ccc1-[n+]1nc(-c2ccccc2S(=O)(=O)O)nn1-c1ccc([N+](=O)[O-])cc1 (as salt: sodium) [EZMTT, 2-(4-nitrophenyl)-3-(2-methoxy-4-nitrophenyl)-5 (2-sulfonic phenyl)-2H-tetrazolium monosodium salt]",,,105
